We go through two compounds from US11142533B2, “Macrocycles for use in treating disease” (TURNING POINT THERAPEUTICS, INC., priority 2019, dated 2021).

“Also recorded” adds a separate entry of the source. Like-named read-outs stand apart in the source and are kept apart here.

One series concerns the target T1, ALK (R1275Q) (Homo sapiens, UniProt Q9UM73, R1275Q).
T1 construct: purchased Reaction Biology Corporation (contract assay)
As to the kind of experiment: Biochemical kinase assay (Reaction Biology). Conditions: 10 μM ATP.

For a further series, the target named is T2, ALK (G1202R) (Homo sapiens, UniProt Q9UM73, G1202R).
T2 construct: purchased Reaction Biology Corporation (contract assay)
As to the kind of experiment: Biochemical kinase assay (Reaction Biology). Conditions: 10 μM ATP.

Another series addresses T3, ALK (L1152P) (Homo sapiens, UniProt Q9UM73, L1152P).
T3 construct: purchased Reaction Biology Corporation (contract assay)
As to the kind of experiment: Biochemical kinase assay (Reaction Biology). Conditions: 10 μM ATP.

A further series deals with T4, ALK (F1174L) (Homo sapiens, UniProt Q9UM73, F1174L).
T4 construct: purchased Reaction Biology Corporation (contract assay)
The experiment in a line: Biochemical kinase assay (Reaction Biology). Conditions: 10 μM ATP.

The next series concerns the target T5, ALK (E1210K/S1206C) (Homo sapiens, UniProt Q9UM73, E1210K/S1206C).
T5 construct: purchased Reaction Biology Corporation (contract assay)
As to the kind of experiment: Biochemical kinase assay (Reaction Biology). To be noted: 10 μM ATP.

A further series concerns the target T6, ALK (D1203N) (Homo sapiens, UniProt Q9UM73, D1203N).
T6 construct: purchased Reaction Biology Corporation (contract assay)
As to the kind of experiment: Biochemical kinase assay (Reaction Biology). Conditions: 10 μM ATP.

Another series addresses T7, ALK (L1198F/C1156Y) (Homo sapiens, UniProt Q9UM73, C1156Y/L1198F).
T7 construct: purchased Reaction Biology Corporation (contract assay)
The experiment in a line: Biochemical kinase assay (Reaction Biology). Conditions: 10 μM ATP.

For the next series, the target named is T8, ALK (Homo sapiens, UniProt Q9UM73).
T8 construct: purchased Reaction Biology Corporation (contract assay)
As to the kind of experiment: Biochemical kinase assay (Reaction Biology). Conditions: 10 μM ATP.

A further series addresses T9, ALK (L1198F) (Homo sapiens, UniProt Q9UM73, L1198F).
T9 construct: purchased Reaction Biology Corporation (contract assay)
As to the kind of experiment: Biochemical kinase assay (Reaction Biology). To be noted: 10 μM ATP.

A further series concerns the target T10, ALK (I1171N) (Homo sapiens, UniProt Q9UM73, I1171N).
T10 construct: purchased Reaction Biology Corporation (contract assay)
As to the kind of experiment: Biochemical kinase assay (Reaction Biology). Conditions: 10 μM ATP.

A further series deals with T11, ALK (T1151M) (Homo sapiens, UniProt Q9UM73, T1151M).
T11 construct: purchased Reaction Biology Corporation (assay run there)
As to the kind of experiment: Biochemical kinase assay (Reaction Biology). To be noted: 10 μM ATP.

The next series deals with T12, ALK (G1269A) (Homo sapiens, UniProt Q9UM73, G1269A).
T12 construct: purchased Reaction Biology Corporation (contract assay)
The experiment in a line: Biochemical kinase assay (Reaction Biology). To be noted: 10 μM ATP.

For the next series, the target named is T13, ALK (L1196M) (Homo sapiens, UniProt Q9UM73, L1196M).
T13 construct: purchased Reaction Biology Corporation (contract assay)
The experiment in a line: Biochemical kinase assay (Reaction Biology). To be noted: 10 μM ATP.

The next series concerns the target T14, ALK (L1152R) (Homo sapiens, UniProt Q9UM73, L1152R).
T14 construct: purchased Reaction Biology Corporation (contract assay)
As to the kind of experiment: Biochemical kinase assay (Reaction Biology). To be noted: 10 μM ATP.

A further series concerns the target T15, ALK (L1198F/L1196M) (Homo sapiens, UniProt Q9UM73, L1196M/L1198F).
T15 construct: purchased Reaction Biology Corporation (contract assay)
As to the kind of experiment: Biochemical kinase assay (Reaction Biology). To be noted: 10 μM ATP.

The next series has as its target T16, ALK (L1198F/G1202R) (Homo sapiens, UniProt Q9UM73, G1202R/L1198F).
T16 construct: purchased Reaction Biology Corporation (contract assay)
The experiment in a line: Biochemical kinase assay (Reaction Biology). Conditions: 10 μM ATP.

Another series has as its target T17, ALK (E1210K/D1203N) (Homo sapiens, UniProt Q9UM73, D1203N/E1210K).
T17 construct: purchased Reaction Biology Corporation (contract assay)
As to the kind of experiment: Biochemical kinase assay (Reaction Biology). Conditions: 10 μM ATP.

The next series concerns the target T18, ALK (T1151-L1152insT) (Homo sapiens, UniProt Q9UM73, INS1151T).
T18 construct: purchased Reaction Biology Corporation (contract assay)
The experiment in a line: Biochemical kinase assay (Reaction Biology). Conditions: 10 μM ATP.

In another series the target is T19, ALK (F1174C) (Homo sapiens, UniProt Q9UM73, F1174C).
T19 construct: purchased Reaction Biology Corporation (contract assay)
The experiment in a line: Biochemical kinase assay (Reaction Biology). To be noted: 10 μM ATP.

A further series concerns the target T20, ALK (delete G1202) (Homo sapiens, UniProt Q9UM73, DEL1202-1202).
T20 construct: purchased Reaction Biology Corporation (contract assay)
The experiment in a line: Biochemical kinase assay (Reaction Biology). To be noted: 10 μM ATP.

Series [1] in a line: Mouse pharmacokinetic study. In kind it is in vivo. To be noted: single oral dose (dose level not given), plasma. On the procedure:
To prepare 1 L of the vehicle solution (0.5% CMC and 1.0% Tween 80), 10 g of Tween 80 was mixed with 985 mL of water into a 1 L bottle. The mixture was stirred until Tween 80 was completely dissolved. With continued stirring, 5 g of CMC was very slowly sprinkled into the solution. Stirring was continued until all CMC was dissolved, which might take several hr. The resulting vehicle solution was stored at 4° C.
The compound was suspended in the vehicle solution and the mice were orally administrated with a single dose of the compound at the selected dose level. The blood samples were collected according to the defined time table into tubes containing K2-EDTA, followed by gentle mixing to assure distribution of the anti-coagulant. Immediately after the blood sample was collected and mixed, it was placed on ice. The samples were then centrifuged at 4° C. for 10 minutes at 5,000 RPM. The plasma was harvested into pre-labeled tubes and stored at −80° C. until analyzed by LC-MS/MS.

Series [2] has as its target T21, ALK fusion protein in Ba/F3 cell-derived xenograft tumors with the EML4-ALK L1196M/G1202R fusion (Homo sapiens, UniProt Q9UM73, G1202R/L1196M).
T21 construct: expressed in transfected cells; host or cells: Ba/F3 cells (lentiviral transduction), implanted subcutaneously in SCID/Beige mice; the other entry of the earlier key: EML4 (Q9HC35, Echinoderm microtubule-associated protein-like 4)
The experiment in a line: In vivo pharmacodynamic study, tumor immunoblotting. On the set-up: species or system mice. Conditions: for ALK phosphorylation level compared to control: 0.6, 2, or 5 mg/kg. As to the method: Mice bearing xenograft tumors were humanely euthanized and tumors were resected and snap frozen in liquid nitrogen and stored at −80° C. Frozen tumor samples were processed at 4° C. in 1× Cell Lysis Buffer (Cell Signaling Technologies) to extract proteins. SDS loading samples were prepared by addition of 4×LDS Sample Buffer and 10× Reducing Reagent (Life Technologies, Inc) to protein lysate. Tumor SDS protein samples were processed by SDS-PAGE and immunoblotted with rabbit anti-phosphorylated ALK Y1282/1283, rabbit anti-phosphorylated ALK Y1604, rabbit anti-ALK and mouse anti-actin antibodies (Cell Signaling Technologies). The signals from immunoblot were detected by C-DiGit Blot Scanner from LI-COR and the signal intensity were quantified using the Image Studio Digit software (LI-COR).
As the control, the expression level of actin was not affected by Compound 1 treatment.

Series [3] has as its target Ba/F3 cell-derived tumors with the EML4-ALK L1196M/G1202R fusion (Homo sapiens, UniProt Q9UM73, G1202R/L1196M).
Where [4] appears, read: single oral dose 10 mg/kg, 2 hours post dose, tumor immunoblot, 10 mg/kg.

Consider `O=C1NCC2(CC2)COc2ccc(F)cc2CN2c3nc4c1cnn4cc3OC[C@H]2C(F)F` [Compound 2, (16′S)-16′-(Difluoromethyl)-12′-fluoro-4′H,5′H,6′H,8′H,14′H,16′H,17′H-spiro[cyclopropane-1,7′-[1,19](metheno)[1,4]oxazino[3,4-j]pyrazolo[4,3-g][1,5,9,11]benzoxatriazacyclotetradecin]-4′-one], for which the concentration for half-maximal inhibition (IC50) (usually the concentration that inhibits the measured activity by half) against ALK (R1275Q) turned out to be 720 pM; against ALK (G1202R) it was 740 pM; at ALK (L1152P), 1960 pM; on ALK (F1174L), 420 pM; on ALK (E1210K/S1206C), 130 pM; against ALK (D1203N), 2900 pM. Also, the IC50 at ALK (L1198F/C1156Y) was determined as 150 pM; at ALK, 1400 pM; against ALK (L1198F) it was 850 pM; at ALK (I1171N), 1160 pM; against ALK (T1151M), 280 pM; on ALK (G1269A) it was 1280 pM. The IC50 is 180 pM against ALK (L1196M); 830 pM at ALK (L1152R); 100 pM on ALK (L1198F/L1196M); 490 pM against ALK (L1198F/G1202R); 4000 pM on ALK (E1210K/D1203N); 860 pM against ALK (T1151-L1152insT). In addition, the IC50 against ALK (F1174C) came out at 920 pM; on ALK (delete G1202) it was 450 pM. Also, the AUC – broadly, the area under the concentration-time curve, a measure of exposure – in series [1] came to 14600 ng·h/mL. In addition, the Cmax (commonly the peak of the concentration-time curve) in [1] was found to be 2510 ng/mL. In series [1], the Tmax (usually the time from dosing to the highest level) stood at 2 h.
Turning to `CC1(C)COc2ccc(F)cc2CN2c3nc4c(cnn4cc3OC[C@H]2C(F)F)C(=O)N1` [Compound 1, (4S)-4-(Difluoromethyl)-8-fluoro-13,13-dimethyl-3,4,13,14-tetrahydro-6H-18,1-(metheno)[1,4]oxazino[3,4-i]pyrazolo[4,3-f][1,4,8,10]benzoxatriazacyclotridecin-15(12H)-one], the “ALK phosphorylation level compared to control” value in series [2] (at 12 hours) is “only showed reduction at 12 hours at the highest dose”. The “ALK phosphorylation level compared to control” value in series [2] (each dose, at 2 hours) is listed as “significantly reduced”. Besides, in [2] (setting [4]), the “level of ALK fusion expression vs vehicle” value is recorded as “reduction; also recorded: reduced”, the “level of phosphorylation of ALK fusions at Y1282/1283 vs vehicle” value is on record as “inhibition of phosphorylation; also recorded: reduced” and the “level of phosphorylation of ALK fusions at Y1604 vs vehicle” value is given as “inhibition of phosphorylation; also recorded: reduced”. In [3] (0.6 mg/kg BID, after 7 days of treatment), the “Tumor growth inhibition (TGI)” value amounted to 19%. The “Tumor growth inhibition (TGI)” value in series [3] (2 mg/kg BID, after 7 days of treatment) amounted to 44%. Moreover, the “Tumor growth inhibition (TGI)” value in series [3] (5 mg/kg BID, after 7 days of treatment) came out at 83%. Further, the “Tumor growth inhibition (TGI)” value in series [3] (10 mg/kg BID, after 7 days of treatment) is 200%. In series [3] (2, 5, 10 mg/kg BID, after 7 days of treatment), the body weight entry was “no body weight loss”. Also, the “tumor growth compared with vehicle treated group” value in [3] (Compound 1 0.6 mg/kg BID or lorlatinib 5 mg/kg BID, day 14, p>0.05) is “not significantly different”. In series [1], the exposure (AUC) came to 11900 ng·h/mL, the peak level (Cmax) was 1750 ng/mL and the Tmax turned out to be 2 h.
